Columns and labels:
α7-1-nAChRs = α7-1-nAChRs (Rattus norvegicus, UniProt Q05941); assay: Two-electrode voltage-clamp of Xenopus oocytes injected with α7-1 cRNA
Type II α7-nAChRs = settings: cited from earlier work
α7-2-nAChRs = α7-2-nAChRs (Rattus norvegicus, UniProt Q05941, INS117GCQLHFDQDLQNMLLREACAQAGEDLRVS); assay: Two-electrode voltage-clamp of Xenopus oocytes injected with α7-2 cRNA

In the case of α-bungarotoxin [αBgt], the “reversal of αBgt block after washout” value (α7-1-nAChRs) is given as “did not appreciably reverse”, the “block by αBgt” value (Type II α7-nAChRs) is given as > 90% and the “time of toxin washout within which inhibition is reversed” value (Type II α7-nAChRs) is given as ≤ 5 min. For the same substance, the “block by αBgt” value (α7-2-nAChRs) was > 90%, the “effect on transient and sustained components of the ACh-evoked current” value (α7-2-nAChRs) was “abolished” and the “inhibition of peak ACh-evoked current” value (α7-2-nAChRs) was 93±3%. For the same substance, the “reversal of αBgt inhibition after washout” value (α7-2-nAChRs) was “recovered to near control levels” and the “time of toxin washout within which inhibition is reversed” value (α7-2-nAChRs) was ≤ 5 min.

From patent US7563595B2 (University of South Florida, priority 2002, dated 2009)
